Patent US20260240842A1, “METHODS TO PREVENT THERAPY RESISTANCE IN MELANOMA VIA BLOCKING GENOMIC INSTABILITY” (THE REGENTS OF THE UNIVERSITY OF CALIFORNIA, priority 2022, published 2026)

What was measured:
[1] = tested on: human BRAF^V600MUT (M229, M249, M395) or NRAS^Q61MUT (M202, M207, M245) melanoma cell lines; test: Long-term clonogenic growth: emergence of acquired MAPKi-resistant colonies (DTPPs) in parental melanoma cell lines under MAPKi; assay type: cell-based; details: parental cell lines, FIG. 11C to 11E and FIG. 12
Protocol: FIGS. 4A-4U. DNA-PKi and/or PARPi co-treatment prevents acquired MAPKi-resistance in human melanoma cell lines. FIGS. 4A to 4O: Long-term clonogenic growth of isogenic parental and acquired MAPKi-resistant BRAF^V600MUT (4A to 4H) or NRAS^Q61MUT (4I to 4O) human melanoma cell lines showing acquired-resistant colonies to BRAFi+MEKi (PLX4032 at 0.5 mM, AZD6244 at 0.5 mM in 4A and 4G; PLX4032 at 0.25 mM, AZD6244 at 0.25 mM in 4D; PLX4032 at 1 mM, AZD6244 at 1 mM in 4B, 4C, 4E, 4F and 4H) or MEKi (trametinib at 0.005 mM in I and 0.01 mM in 4J and 4N; trametinib at 0.1 mM in 4K, 4M and 4O) and their suppression by indicated co-treatments with DNA-PKi (NU7026) and/or PARPi (ABT888) at indicated concentrations. Top, representative cultures; bottom, quantifications over n=4 fields (mean±SD). Data representative of 2 to 4 independent repeats. Seeding densities (cells/well in 6-well dishes) and culture durations (days): (4A) 5,000; 31, (4B) 1,000; 17, (4C) 5,000; 18, (4D) 40,000; 40, (4E) 5,000; 14, (4F) 5,000; 12, (4G) 20,000; 30, (4H) 20,000; 21, (4I) 40,000; 30, (4J) 50,000; 31, (4K) 5,000; 17, (4L) 5,000; 22, (4M) 5,000; 16, (4N) 20.000; 16, and (4O) 5,000; 16. Data representative of 2 to 4 independent repeats. FIGS. 4P and 4Q: Western blot, MTT assay (upper), and clonogenic growth assay (lower) of M245 cells transduced by lentivirus harboring shVector control or shRNAs of PRKDC (4P) or LIG4 (4Q). TUBULIN, loading control. Clonogenic growth with vehicle (14 days, 5,000 cells/well in 6-well dishes) or MEKi (29 days, 50,000 cells/well in 6-well dishes) treatments. MEKi, trametinib at 0.01 μM. Representative results of two independent experiments; quantification of n=4 fields (mean±SD). FIGS. 4R and 4S: As in 4A and 4J, respectively, except DNA-PKi and/or PARPi co-treatments were performed in M229 (4R) and M245 (4S) at a later stage of MAPKi treatment (see timepoint schema). Inhibitor concentrations for M229: BRAFi+MEKi (PLX4032 at 0.5 μM, AZD6244 at 0.5 μM), NU7026 (8 μM), ABT888 (4 μM) and NU7026+ABT888 (4 μM+4 μM). Inhibitor concentrations for M245: MEKi (trametinib at 0.01 μM), NU7026 (5 μM), ABT888 (1 μM) and NU7026+ABT888 (5 μM+1 μM). Left, representative cultures; right, quantifications over n=4 fields (mean±SD). Data representative of 2 independent repeats. FIGS. 4T and 4U: As in 4A and 4J, respectively, except DNA-PKi and/or PARPi co-treatments were performed in M229 (4T) and M245 cells (4U) at the same concentrations in R and S for the entire durations (day 1-28 in 4T; day 1-30 in 4U), the first half (day 1-14 in T; day 1-15 in 4U) or the second half (day 14-28 in 4T: day 15-30 in 4U) of the total treatment course. Top, representative cultures; bottom, quantifications over n=4 fields (mean±SD). Data representative of 2 independent repeats. P values (one-way ANOVA followed by Tukey's multiple comparison test) comparing indicated cultures versus MAPKi-only cultures (4A to 4O and 4R to 4U) or shVector culture (4P and 4Q): *, p<0.05; **, p<0.01: ***, p<0.001.
FIGS. 12A-12F. DNA-PKi and/or PARPi co-treatment prevents acquired MAPKi-resistance in human melanoma cell lines. FIGS. 12A to 12F: Long-term clonogenic growth of BRAF^V600MUT (12A, 12C and 12E) or NRAS^Q61MUT (12B, 12D and 12F) cell lines showing acquired-resistant colonies to BRAFi+MEKi (PLX4032 at 0.5 mM, AZD6244 at 0.5 mM for M229 and M395; PLX4032 at 0.25 mM, AZD6244 at 0.25 mM for M249) or MEKi (trametinib at 0.005 mM for M202 and 0.01 mM for M207 and M245) and their suppression by indicated co-treatments with DNA-PKi (VX984 in 12A and 12B; AZD7648 in 12C and 12D) and/or PARPi (olaparib in 12E and 12F) at indicated concentrations. Top, representative cultures; bottom, quantifications over n=4 fields (mean±SD). Data representative of 2 independent repeats. Seeding densities (cells/well in 6-well dishes) and culture durations (days): M202 (40,000, 30), M207 (20,000, 16), M229 (5,000, 32), M245 (50,000, 31), M249 (40,000, 40), and M395 (20,000, 30). […]

γH2AX = test: Immunofluorescence of γH2AX nuclear foci in early on-treatment PDX tumors; assay type: in vivo, NSG mice; details: short-term MEKi treatment in Mel_PDX1; FIG. 13G
Text: FIGS. 13A-13H. In vivo impacts of DNA-PKi when combined with MAPKi. FIGS. 13A and 13B: Long-term follow-up of tumor volumes (13A, BRAFi+MEKi, n=5 tumors; BRAFi+MEKi+DNA-PKi, n=6 tumors) (13B, MEKi, n=6 tumors; MEKi+DNAP-PKi, n=6 tumors) and average mice body weights for 13A and 13B. Related to experiments in FIGS. 7B and 7E, respectively. FIGS. 13C and 13D, Tumor volumes (mean±SEM) of two examples of tumor models treated short-term with vehicle or indicated single versus combined agents. Inhibitors and dosages are identical to those in FIGS. 7C and 7E, respectively. The numbers of tumors and their sizes are shown in the photographs (right) taken at the times of tumor harvest (end points). FIGS. 13E to 13G: Immunofluorescence of p-ERK (13E), p-DNA-PKcs (S2056) (13F), or γH2AX (13G) levels in Mel_PDX1 tumor model, treated with vehicle or indicated single versus combined agents for 11 days (shown in 13C). DAPI, nuclear stain. Scale bar, 50 μm (13E) and 20 μm (13F and 13G). Representative images shown for two tumors analyzed per group. Quantification of p-DNA-PKcs signals obtained by taking the average of positively stained foci per nucleus (13F, representative of 4 fields). Quantification of γH2AX signals analyzed either by percentage of cells with γH2AX foci or percentage of cells with greater than 5 γH2AX foci (13G, representative of 4 fields). […]

Row | SMILES | combinatorial efficacy of next-generation DNA-PKi and PARPi with MAPKi [1] | tumor cells with gH2AX nuclear foci (γH2AX) [%]
1 | O=C(c1cc(Cc2n[nH]c(=O)c3ccccc23)ccc1F)N1CCN(C(=O)C2CC2)CC1 [olaparib] | corroborated the combinatorial efficacy | –
2 | Cc1cc2ncnn2cc1Nc1ncc2c(n1)n(C1CCOCC1)c(=O)n2C [AZD7648] | corroborated the combinatorial efficacy | –
3 | CC(=O)Nc1cccc(-n2c(=O)n(C3CC3)c(=O)c3c(Nc4ccc(I)cc4F)n(C)c(=O)c(C)c32)c1 [trametinib] | – | > 50
